Test [1] has as its target T1, His6-TEV-PPARγ-(234-505) (Homo sapiens, UniProt P37231).
T1 construct: The His6-TEV-PPARγ-(234-505) protein for assay was expressed and purified; TEV cleavage site (N); made in house
T1 sequence (P37231 234-505): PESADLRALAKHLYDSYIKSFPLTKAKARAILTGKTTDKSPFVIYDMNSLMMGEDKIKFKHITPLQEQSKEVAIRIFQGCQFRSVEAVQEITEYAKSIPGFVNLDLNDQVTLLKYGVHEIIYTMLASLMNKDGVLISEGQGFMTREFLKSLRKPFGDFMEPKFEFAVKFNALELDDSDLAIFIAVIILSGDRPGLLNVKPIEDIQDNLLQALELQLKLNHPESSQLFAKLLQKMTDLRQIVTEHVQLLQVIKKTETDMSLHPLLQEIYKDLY
Description: TR-FRET Assay to Measure Co-R Peptide Recruitment to PPARγ. It counts as biochemical. The following applies: Co-R peptide (SMRT-ID2) recruitment; top final concentration 20 μM; read-out: TR-FRET i-Ag; AC50. The essentials:
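Corepressor recruitment is measured by adding terbium-labeled anti-His antibody and FITC SMRT-ID2 peptide, at 5 and 200 nM final, after a 20-minute room-temperature protein–compound incubation. After one further hour, signal is converted to percent response between DMSO and 500 nM T0070907 wells.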
(In general: In TR-FRET formats the signal depends on donor and acceptor labels being close together.)

Test [2] relates to UM-UC-9 engineered cells. In words: Cell proliferation / short-term viability assay, CellTiter-Glo 144 h. The following applies: read-out: CTGlo 144 h UMUC9.5, G150. It counts as cell-based, human. How it is done: Cell Seeding for Proliferation Assay
UM-UC-9 engineered cells were cultured in Dulbecco's Modified Eagle Medium (DMEM) supplemented with 10% FBS, 25 mM glucose (high glucose), 4.0 mM L-glutamine, 2.0 mM GlutaMAX™, 1.0 mM pyruvate, 1.0% non-essential amino acids (NEAA) in a 95% humidified incubator at 37° C. with 5% CO2. Cell banks of UM-UC-9 engineered assay-ready cells (ARCs) were prepared from a very active growth stage. Vials of ARCs containing approximately 5×10^6 cells per vial were stored in liquid nitrogen vapor phase cryostorage until use.
For making assay plates, ARCs were recovered from cryostorage, strained in a […] cell strainer, verified for cell viability >90% and counted using a cell counter (Cellometer Auto 1000, Nexelom). Each cell line was seeded into 384-well plates (50 μl/well) using DMEM medium at a density previously determined to be in log growth phase 7 days post-seeding (500 cells/well) using a bulk reagent dispenser (Multidrop™ Combi, Thermo Scientific) with a large-bore plastic-tip cassette pre-sanitized with 70% ethanol. One plate of cells was designated as the pretreatment time-zero (T0) control. Freshly seeded plates were allowed to sit lidded for 30 minutes within a biosafety cabinet for cells to settle distributed within the plate wells uniformly and then placed into an automated incubator (STX110, Liconic) at 37° C., 5% CO2, and 95% relative humidity.
Preparation of Test Compound in Assay-Ready Plate
Compounds were stored in a low-temperature sample archive as 10 mM dimethyl sulfoxide (DMSO) solutions at −20° C. under reduced humidity (−45° C. dew point) and protected from light. All samples in the automated archive are stored in 2D barcoded polypropylene tubes, tracked through a laboratory information management system (LIMS), and have been verified for identity and purity by NMR (Chemistry, H3 Biomedicine) and by LCMS (Analytical Chemistry, H3 Biomedicine) at the time of sample registration. Identity by mass matching and purity are again verified at the time of sample request fulfillment by redundant LCMS methods (acidic and basic separation protocols; Analytical Chemistry, H3 Biomedicine). Samples retrieved from low-temperature archive storage were solubilized by heated sonication (Bransonic® Ultrasonic Bath, Branson), transferred (Microlab Starlet, Hamilton) and serially-diluted (Viaflo Assist, Integra) by low-volume liquid handlers, and tracked in LIMS by automation log files to create a ID barcoded master dose-response plate (MDR) to serve as a standard source for all assay-ready plates (ARP) used within an experiment. ARPs prepared by acoustic transfer (ATS-100, EDC) of nL volumes from the MDR source were heat-sealed (PlateLoc, Agilent) and stored at −20° C. prior to use (<7 days from production). Tracking of liquid transfers via acoustic dispenser log files were used to update the LIMS system for all ARP plate maps.
Measurement of Pretreatment Control Cells and Sample Anti-Proliferative Effects on Treated Cells
On day 0 (pretreatment cells) or day 7 (treated cells), a cell proliferation assay was performed using an automated robotic assay platform (ACell, High-Res Biosolutions). Cell ARP's were removed from incubation, their plate lid discarded, and using a bulk reagent dispenser (Multidrop™ Combi, Thermo Scientific with a small-bore metal-tip cassette) 25 μL (1/2 volume) of Cell Titer-Glo® 2.0 Cell Viability Assay reagent (Promega) was added to wells of columns 1-23 (column 24 will be used as plate background or positive control). Cell ARP's were incubated at room temperature in an automation hotel position for a total of 1.0 minute while the next plate was delivered to the bulk reagent dispenser and then lid-free cell ARP's were returned to incubate at 37° C. for 2.5 hours. […]

Read-outs that look alike come from different tables or passages of the source.

For `COc1cc(-c2cc(C(=O)N3CCC(C(=O)NC4CCC(O)(C(F)(F)F)C(O)C4)CC34CC4)n[nH]2)c(F)cn1` (mixture of isomers) [Example 474-B], the AC50 in test [1] was found to be 4.6 nM. Moreover, the IC50 in test [2] came to 50.6 nM.

On to `COc1cc(-c2cc(C(=O)N3CCC(C(=O)NCc4cccc(C(F)F)n4)CC3)n[nH]2)c(Cl)cn1` [Example 239, 1-(5-(5-chloro-2-methoxypyridin-4-yl)-1H-pyrazole-3-carbonyl)-N-((6-(difluoromethyl)pyridin-2-yl)methyl)piperidine-4-carboxamide], for which the AC50 in test [1] turned out to be 246 nM. Moreover, the IC50 in test [2] (Homo sapiens, UM-UC-9, 144 h) worked out at 1400 nM.

Take `Cc1cc(-c2cc(C(=O)N3CC[C@H](C(=O)NCc4ncccc4C4CC4)CC34CC4)[nH]n2)c(F)cn1` (racemic) [Example 506, (S)—N-((3-cyclopropylpyridin-2-yl)methyl)-4-(3-(5-fluoro-2-methylpyridin-4-yl)-1H-pyrazole-5-carbonyl)-4-azaspiro[2.5]octane-7-carboxamide and (R)—N-((3-cyclopropylpyridin-2-yl)methyl)-4-(3-(5-fluoro-2-methylpyridin-4-yl)-1H-pyrazole-5-carbonyl)-4-azaspiro[2.5]octane-7-carboxamide]: the AC50 in test [1] was 10.3 nM. Further, the IC50 in test [2] (Homo sapiens, UM-UC-9, 144 h) stood at 20.6 nM.

Consider `COc1cc(-c2cc(C(=O)N3CC[C@H](C(=O)NC4CCN(C5COC56CCC6)C4)CC34CC4)n[nH]2)c(F)cn1` (single isomer, unassigned) [Example 464-D], for which the AC50 in test [1] is 7.6 nM. Further, in test [2] (Homo sapiens, UM-UC-9, 144 h), the IC50 is 25.2 nM.

Turning to `COc1cc(-c2cc(C(=O)N3CCC(C(=O)NC4c5ccccc5OC4C)CC3)n[nH]2)c(Cl)cn1` (stereo not drawn) [Example 265, 1-(5-(5-chloro-2-methoxypyridin-4-yl)-1H-pyrazole-3-carbonyl)-N-(2-methyl-2,3-dihydrobenzofuran-3-yl)piperidine-4-carboxamide], in test [1], the AC50 was 87.7 nM. The IC50 in test [2] (Homo sapiens, UM-UC-9, 144 h) turned out to be 458 nM.

In the case of `COc1cc(-c2cc(C(=O)N3CCC(C(=O)Nc4cccc(C)n4)CC3)n[nH]2)c(Cl)cn1` [Example 251, 1-(5-(5-chloro-2-methoxypyridin-4-yl)-1H-pyrazole-3-carbonyl)-N-(6-methylpyridin-2-yl)piperidine-4-carboxamide], the AC50 in test [1] is 254 nM. Also, the IC50 in test [2] (Homo sapiens, UM-UC-9, 144 h) was 1380 nM.

As for `COc1cc(-c2cc(C(=O)N3CC[C@H](C(=O)NC4CN(CC5(F)CC5)C4)CC34CC4)n[nH]2)c(F)cn1` [Example 406, (S)-4-(5-(5-fluoro-2-methoxypyridin-4-yl)-1H-pyrazole-3-carbonyl)-N-(1-((1-fluorocyclopropyl)methyl)azetidin-3-yl)-4-azaspiro[2.5]octane-7-carboxamide], in test [1], the AC50 amounted to 34.1 nM. Also, the IC50 in test [2] (Homo sapiens, UM-UC-9, 144 h) amounted to 73.3 nM.

Take `COc1cc(-c2cc(C(=O)N3CCC(C(=O)NCc4ccc5cnn(C)c5c4)CC3)n[nH]2)c(Cl)cn1` [Example 229, 1-(5-(5-chloro-2-methoxypyridin-4-yl)-1H-pyrazole-3-carbonyl)-N-((1-methyl-1H-indazol-6-yl)methyl)piperidine-4-carboxamide]: the AC50 in test [1] was found to be 70.6 nM. In addition, the IC50 in test [2] (Homo sapiens, UM-UC-9, 144 h) was 614 nM.

For the compound `COc1cc(-c2cc(C(=O)N3CC[C@H](C(=O)NC4CCCn5cc(C(F)(F)F)nc54)CC34CC4)n[nH]2)c(F)cn1` (single isomer, unassigned) [Example 502-A], in test [1], the AC50 was 110 nM. Moreover, the IC50 in test [2] was determined as 750 nM.

Take `COc1cc(-c2cc(C(=O)N3CCC(C(=O)NC4CCC(O)(C(F)(F)F)C(O)C4)CC34CC4)n[nH]2)c(F)cn1` (mixture of isomers) [Example 474-A]: the AC50 in test [1] was found to be 336 nM. Also, in test [2], the IC50 was found to be 6210 nM.

Consider `COc1cc(-c2cc(C(=O)N3CC[C@H](C(=O)NCc4nc(C)cnc4Cl)CC34CC4)n[nH]2)c(F)cn1` [Example 451, (S)—N-((3-chloro-6-methylpyrazin-2-yl)methyl)-4-(5-(5-fluoro-2-methoxypyridin-4-yl)-1H-pyrazole-3-carbonyl)-4-azaspiro[2.5]octane-7-carboxamide], for which the IC50 in test [2] (Homo sapiens, UM-UC-9, 144 h) is 9.6 nM.

Turning to `COc1cc(-c2cc(C(=O)N3CC[C@H](C(=O)NCc4ncc(C#N)cn4)CC34CC4)n[nH]2)c(F)cn1` [Example 456, (S)—N-((5-cyanopyrimidin-2-yl)methyl)-4-(5-(5-fluoro-2-methoxypyridin-4-yl)-1H-pyrazole-3-carbonyl)-4-azaspiro[2.5]octane-7-carboxamide], the IC50 in test [2] (Homo sapiens, UM-UC-9, 144 h) was 312 nM.

Turning to `COc1cc(-c2cc(C(=O)N3[C@@H]4CC[C@H]3C[C@H](C(=O)NC3CCC(C#N)(C(F)(F)F)CC3)C4)n[nH]2)c(F)cn1` (stereo partly drawn) [Example 438, (1R,3s,5S)—N-(4-cyano-4-(trifluoromethyl)cyclohexyl)-8-(5-(5-fluoro-2-methoxypyridin-4-yl)-1H-pyrazole-3-carbonyl)-8-azabicyclo[3.2.1]octane-3-carboxamide], the IC50 in test [2] (Homo sapiens, UM-UC-9, 144 h) came out at 1150 nM.

Take `COc1cc(-c2cc(C(=O)N3CCC(C(=O)NC4CCC(C(F)(F)F)CC4)CC3)n[nH]2)c(Cl)cn1` (mixture of isomers) [Example 118, 1-[5-(5-chloro-2-methoxypyridin-4-yl)-1H-pyrazole-3-carbonyl]-N-[(1s,4s)-4-(trifluoromethyl)cyclohexyl]piperidine-4-carboxamide and 1-[5-(5-chloro-2-methoxypyridin-4-yl)-1H-pyrazole-3-carbonyl]-N-[(1r,4r)-4-(trifluoromethyl)cyclohexyl]piperidine-4-carboxamide]: the IC50 in test [2] is 121 nM.

In the case of `COc1cc(-c2cc(C(=O)N3CCC(C(=O)NC(C)c4cccc(Cl)c4)CC3)n[nH]2)c(Cl)cn1` (racemic) [Example 115, (R)-1-[5-(5-chloro-2-methoxypyridin-4-yl)-1H-pyrazole-3-carbonyl]-N-[1-(3-chlorophenyl)ethyl]piperidine-4-carboxamide and (S)-1-[5-(5-chloro-2-methoxypyridin-4-yl)-1H-pyrazole-3-carbonyl]-N-[1-(3-chlorophenyl)ethyl]piperidine-4-carboxamide], in test [2], the IC50 came out at 428 nM.

For the compound `COc1cc(-c2cc(C(=O)N3CCC(C(=O)NC4CCC(C)CC4)CC3)n[nH]2)c(Cl)cn1` (single isomer, unassigned) [Example 101-A], in test [2] (listed as 101a), the IC50 is greater than 10000 nM.

Take `COc1cnc(CNC(=O)[C@H]2CCN(C(=O)c3cc(-c4cc(OC)ncc4F)[nH]n3)C3(CC3)C2)c(C(F)(F)F)c1` [Example 527, (S)-4-(5-(5-fluoro-2-methoxypyridin-4-yl)-1H-pyrazole-3-carbonyl)-N-((5-methoxy-3-(trifluoromethyl)pyridin-2-yl)methyl)-4-azaspiro[2.5]octane-7-carboxamide]: the IC50 in test [2] (Homo sapiens, UM-UC-9, 144 h) came to 5 nM.

Values taken from patent publication US12606541B2, “PPARg modulators and methods of use” (Eisai R&D Management Co., Ltd., priority 2020, dated 2026).
